Results: ChEMBL document CHEMBL3808279, “Sequential one-pot synthesis of bis(indolyl)glyoxylamides: Evaluation of antibacterial and anticancer activities” (Bioorg Med Chem Lett, 2016)
≈ marks a conversion by molar mass, not a printed value. Each block holds one compound with its values, some of them ahead of it. Calls of active or inactive are those of the source. The calls are words filed in the database; no cut-off is given here.

Tests used:
Pseudomonas putida [1] = experiment: Antibacterial activity against Pseudomonas putida after 18 to 24 hrs by microbroth dilution method; assay type: functional; conditions: for MIC: Pseudomonas putida
Escherichia coli [2] = experiment: Antibacterial activity against Escherichia coli after 18 to 24 hrs by microbroth dilution method; assay type: functional; conditions: for MIC: Escherichia coli
[3] = Cytotoxicity against human BxPC3 cells after 48 hrs by MTT assay; assay type: functional, cell-based; conditions: BXPC-3, 48 h
MDA-MB-231 = experiment: Cytotoxicity against human MDA-MB-231 cells after 48 hrs by MTT assay; assay type: functional, cell-based; conditions: MDA-MB-231, 48 h
[4] = Cytotoxicity against human HEK293T cells after 48 hrs by MTT assay; assay type: cell-based; conditions: HEK-293T
HeLa = experiment: Cytotoxicity against human HeLa cells after 48 hrs by MTT assay; assay type: functional, cell-based
[5] = Cytotoxicity against human C4-2 cells after 48 hrs by MTT assay; assay type: functional, cell-based; conditions: LNCaP C4-2, 48 h
[6] = Cytotoxicity against human PC3 cells after 48 hrs by MTT assay; assay type: functional, cell-based; conditions: PC-3, 48 h
Staphylococcus aureus [7] = experiment: Antibacterial activity against Staphylococcus aureus after 18 to 24 hrs by microbroth dilution method; assay type: functional; conditions: for MIC: Staphylococcus aureus
Klebsiella pneumoniae = experiment: Antibacterial activity against Klebsiella pneumoniae after 18 to 24 hrs by microbroth dilution method; assay type: functional; conditions: for MIC: Klebsiella pneumoniae
Bacillus subtilis [8] = experiment: Antibacterial activity against Bacillus subtilis after 18 to 24 hrs by microbroth dilution method; assay type: functional; conditions: for MIC: Bacillus subtilis
Corynebacterium xerosis = experiment: Antimicrobial activity against Corynebacterium xerosis; assay type: functional
Micrococcus luteus = experiment: Antimicrobial activity against Sarcina lutea; assay type: functional
P388 = experiment: Cytotoxicity against mouse P388 cells; assay type: functional, cell-based
A549 = experiment: Cytotoxicity against human A549 cells; assay type: functional, cell-based
Pseudomonas aeruginosa = experiment: Antimicrobial activity against Pseudomonas aeruginosa; assay type: functional
Escherichia coli [9] = experiment: Antimicrobial activity against Escherichia coli; assay type: functional
Bacillus subtilis [10] = experiment: Antimicrobial activity against Bacillus subtilis; assay type: functional
Pseudomonas putida [11] = experiment: Bactericidal activity against Pseudomonas putida assessed as maximum bactericidal reduction at 3 times MIC after 3 hrs by time-kill analysis; assay type: functional, organism-based
Escherichia coli [12] = experiment: Bactericidal activity against Escherichia coli assessed as maximum bactericidal reduction at 3 times MIC after 3 hrs by time-kill analysis; assay type: functional, organism-based
Bacillus subtilis [13] = experiment: Bactericidal activity against Bacillus subtilis at 3 times MIC after 2 hrs by time-kill analysis; assay type: functional
Escherichia coli [14] = experiment: Bactericidal activity against Escherichia coli at 3 times MIC after 2 hrs by time-kill analysis; assay type: functional
[15] = Stability of compound at pH 4.5 up to 48 hrs by HPLC analysis; assay type: physicochemical; conditions: buffer, pH 4.5, 48 h
[16] = Aqueous solubility of compound after 12 hrs by shake-flask method; assay type: physicochemical; conditions: water
Staphylococcus aureus [17] = experiment: Bactericidal activity against Staphylococcus aureus at 3 times MIC after 2 hrs by time-kill analysis; assay type: functional
Pseudomonas putida [18] = experiment: Bactericidal activity against Pseudomonas putida at 3 times MIC after 2 hrs by time-kill analysis; assay type: functional
[19] = Stability of compound at pH 7.4 up to 48 hrs by HPLC analysis; assay type: physicochemical; conditions: buffer, pH 7.4, 48 h

Compound: COc1ccc2c(c1)c(C(=O)C(=O)NCCc1c[nH]c3ccccc13)cn2Cc1ccc(Cl)cc1
inhibition zone (IZ) (Pseudomonas putida [1]): 15 mm
MIC (Pseudomonas putida [1]): 50 µg/mL (≈ 103 µM)
inhibition zone (IZ) (Escherichia coli [2]): 13 mm
MIC (Escherichia coli [2]): > 100 µg/mL
IC50 [3]: > 100 µM
IC50 (MDA-MB-231): > 100 µM
IC50 [4]: > 100 µM
IC50 (HeLa): > 100 µM
IC50 [5]: > 100 µM
IC50 [6]: > 100 µM

MIC (Pseudomonas putida [1]): > 50 µg/mL
MIC (Escherichia coli [2]): > 50 µg/mL
MIC (Staphylococcus aureus [7]): 100 µg/mL (≈ 277 µM)
MIC (Klebsiella pneumoniae): 100 µg/mL (≈ 277 µM)
MIC (Bacillus subtilis [8]): > 100 µg/mL
Compound: COc1ccc2c(C(=O)C(=O)NCCc3c[nH]c4ccccc34)c[nH]c2c1
inhibition zone (IZ) (Pseudomonas putida [1]): 15 mm
inhibition zone (IZ) (Escherichia coli [2]): 14 mm
IC50 [3]: > 100 µM
IC50 (MDA-MB-231): > 100 µM
inhibition zone (IZ) (Staphylococcus aureus [7]): 14 mm
inhibition zone (IZ) (Klebsiella pneumoniae): 15 mm
IC50 [4]: > 100 µM
IC50 (HeLa): > 100 µM
inhibition zone (IZ) (Bacillus subtilis [8]): 15 mm
IC50 [5]: > 100 µM
IC50 [6]: > 100 µM

Compound: CCn1cc(C(=O)C(=O)NCCc2c[nH]c3ccccc23)c2ccccc21
inhibition zone (IZ) (Pseudomonas putida [1]): 12 mm
MIC (Pseudomonas putida [1]): > 100 µg/mL
inhibition zone (IZ) (Escherichia coli [2]): 14 mm
MIC (Escherichia coli [2]): > 50 µg/mL
IC50 [3]: > 100 µM
IC50 (MDA-MB-231): > 100 µM
inhibition zone (IZ) (Staphylococcus aureus [7]): 14 mm
MIC (Staphylococcus aureus [7]): 100 µg/mL (≈ 278 µM)
inhibition zone (IZ) (Klebsiella pneumoniae): 13 mm
MIC (Klebsiella pneumoniae): > 100 µg/mL
IC50 [4]: > 100 µM
IC50 (HeLa): > 100 µM
inhibition zone (IZ) (Bacillus subtilis [8]): 14 mm
MIC (Bacillus subtilis [8]): 100 µg/mL (≈ 278 µM)
IC50 [5]: > 100 µM
IC50 [6]: > 100 µM

Compound: O=C(NCCc1c[nH]c2ccccc12)C(=O)c1cn(Cc2ccc(Cl)cc2)c2ccc(F)cc12
inhibition zone (IZ) (Pseudomonas putida [1]): 14 mm
MIC (Pseudomonas putida [1]): 100 µg/mL (≈ 211 µM)
inhibition zone (IZ) (Escherichia coli [2]): 14 mm
MIC (Escherichia coli [2]): 100 µg/mL (≈ 211 µM)
IC50 [3]: > 100 µM
IC50 (MDA-MB-231): > 100 µM
inhibition zone (IZ) (Staphylococcus aureus [7]): 13 mm
MIC (Staphylococcus aureus [7]): 100 µg/mL (≈ 211 µM)
inhibition zone (IZ) (Klebsiella pneumoniae): 12 mm
MIC (Klebsiella pneumoniae): > 100 µg/mL
IC50 [4]: > 100 µM
IC50 (HeLa): > 100 µM
inhibition zone (IZ) (Bacillus subtilis [8]): 13 mm
MIC (Bacillus subtilis [8]): > 50 µg/mL
IC50 [5]: > 100 µM
IC50 [6]: > 100 µM

MIC (Corynebacterium xerosis): 16 µg/mL (≈ 36.9 µM)
MIC (Micrococcus luteus): 16 µg/mL (≈ 36.9 µM)
Compound: O=C1N=C(C(=O)c2c[nH]c3ccc(Br)cc23)N/C1=C\c1c[nH]c2ccccc12

MIC (Pseudomonas aeruginosa): 62.5 µg/mL
MIC (Escherichia coli [9]): 15.6 µg/mL
MIC (Bacillus subtilis [10]): 3.1 µg/mL
Compound: CC(c1c[nH]c(N)n1)c1ccc(O)c2[nH]cc(-c3cnc(-c4c[nH]c5cc(Br)ccc45)c(O)n3)c12.O=C(O)C(F)(F)F (stereo not given) [DRAGMACIDINS]
IC50 (P388): 1.4 µg/mL
IC50 (A549): 4.5 µg/mL

Compound: O=C(N[C@H](CO)[C@H](O)c1ccc([N+](=O)[O-])cc1)C(Cl)Cl [CHLORAMPHENICOL]
inhibition zone (IZ) (Pseudomonas putida [1]): 21 mm
inhibition zone (IZ) (Escherichia coli [2]): 22 mm
inhibition zone (IZ) (Staphylococcus aureus [7]): 21 mm
inhibition zone (IZ) (Klebsiella pneumoniae): 20 mm
inhibition zone (IZ) (Bacillus subtilis [8]): 22 mm

Compound: O=C(NCCc1c[nH]c2ccccc12)C(=O)c1c[nH]c2ccc(F)cc12
inhibition zone (IZ) (Pseudomonas putida [1]): 18 mm
MIC (Pseudomonas putida [1]): 12.5 µg/mL (≈ 35.8 µM)
Activity (Pseudomonas putida [11]): Active
inhibition zone (IZ) (Escherichia coli [2]): 20 mm
MIC (Escherichia coli [2]): 12.5 µg/mL (≈ 35.8 µM)
IC50 [3]: > 100 µM
IC50 (MDA-MB-231): > 100 µM
Activity (Escherichia coli [12]): Active
inhibition zone (IZ) (Staphylococcus aureus [7]): 17 mm
MIC (Staphylococcus aureus [7]): 25 µg/mL (≈ 71.6 µM)
Activity (Bacillus subtilis [13]): >80%
inhibition zone (IZ) (Klebsiella pneumoniae): 18 mm
MIC (Klebsiella pneumoniae): 12.5 µg/mL (≈ 35.8 µM)
IC50 [4]: > 100 µM
IC50 (HeLa): > 100 µM
Activity (Escherichia coli [14]): 80%
Stability [15]: Stable
inhibition zone (IZ) (Bacillus subtilis [8]): 18 mm
MIC (Bacillus subtilis [8]): > 12.5 µg/mL
IC50 [5]: > 100 µM
IC50 [6]: > 100 µM
solubility thermodynamic at 12 h [16]: 0.3 µg/mL (≈ 0.859 µM)
Activity (Staphylococcus aureus [17]): >65%
Activity (Pseudomonas putida [18]): 80%
Stability [19]: Stable

Compound: Cn1cc(C(=O)C(=O)NCCc2c[nH]c3ccccc23)c2ccccc21
inhibition zone (IZ) (Pseudomonas putida [1]): 17 mm
MIC (Pseudomonas putida [1]): > 25 µg/mL
Activity (Pseudomonas putida [11]): Active
inhibition zone (IZ) (Escherichia coli [2]): 18 mm
MIC (Escherichia coli [2]): 12.5 µg/mL (≈ 36.2 µM)
IC50 [3]: > 100 µM
IC50 (MDA-MB-231): > 100 µM
Activity (Escherichia coli [12]): Active
inhibition zone (IZ) (Staphylococcus aureus [7]): 16 mm
MIC (Staphylococcus aureus [7]): 50 µg/mL (≈ 145 µM)
Activity (Bacillus subtilis [13]): >80%
inhibition zone (IZ) (Klebsiella pneumoniae): 17 mm
MIC (Klebsiella pneumoniae): 25 µg/mL (≈ 72.4 µM)
IC50 [4]: > 100 µM
IC50 (HeLa): > 100 µM
Activity (Escherichia coli [14]): 80%
Stability [15]: Stable
inhibition zone (IZ) (Bacillus subtilis [8]): 18 mm
MIC (Bacillus subtilis [8]): > 25 µg/mL
IC50 [5]: > 100 µM
IC50 [6]: > 100 µM
Activity (Staphylococcus aureus [17]): >65%
Activity (Pseudomonas putida [18]): 80%
Stability [19]: Stable

Compound: O=C(NCCc1c[nH]c2ccccc12)C(=O)c1cn(Cc2ccc(F)cc2)c2ccccc12
inhibition zone (IZ) (Pseudomonas putida [1]): 15 mm
MIC (Pseudomonas putida [1]): 100 µg/mL (≈ 228 µM)
inhibition zone (IZ) (Escherichia coli [2]): 15 mm
MIC (Escherichia coli [2]): 100 µg/mL (≈ 228 µM)
IC50 [3]: > 100 µM
IC50 (MDA-MB-231): > 100 µM
inhibition zone (IZ) (Staphylococcus aureus [7]): 14 mm
MIC (Staphylococcus aureus [7]): > 100 µg/mL
inhibition zone (IZ) (Klebsiella pneumoniae): 13 mm
MIC (Klebsiella pneumoniae): > 100 µg/mL
IC50 [4]: > 100 µM
IC50 (HeLa): > 100 µM
inhibition zone (IZ) (Bacillus subtilis [8]): 12 mm
MIC (Bacillus subtilis [8]): > 100 µg/mL
IC50 [5]: > 100 µM
IC50 [6]: > 100 µM
